Test results reported in PMC4317577, “Synthetic Covalently Linked Dimeric Form of H2 Relaxin Retains Native RXFP1 Activity and Has Improved In Vitro Serum Stability” (BioMed Research International, 2015).

Experiments:
human RXFP2 = molecular target: T1, human RXFP2 (Homo sapiens, UniProt Q8WXD0); assay: cAMP reporter gene (pCRE β-galactosidase) assay in RXFP2 expressing HEK-293T cells; format: cell-based; details: HEK-293T cells expressing RXFP2, pCRE β-galactosidase reporter, 6 h at 37°C; at least three independent experiments in triplicate
T1 construct: expressed in transfected cells; host or cells: HEK-293T
T1 sequence (Q8WXD0 whole entry): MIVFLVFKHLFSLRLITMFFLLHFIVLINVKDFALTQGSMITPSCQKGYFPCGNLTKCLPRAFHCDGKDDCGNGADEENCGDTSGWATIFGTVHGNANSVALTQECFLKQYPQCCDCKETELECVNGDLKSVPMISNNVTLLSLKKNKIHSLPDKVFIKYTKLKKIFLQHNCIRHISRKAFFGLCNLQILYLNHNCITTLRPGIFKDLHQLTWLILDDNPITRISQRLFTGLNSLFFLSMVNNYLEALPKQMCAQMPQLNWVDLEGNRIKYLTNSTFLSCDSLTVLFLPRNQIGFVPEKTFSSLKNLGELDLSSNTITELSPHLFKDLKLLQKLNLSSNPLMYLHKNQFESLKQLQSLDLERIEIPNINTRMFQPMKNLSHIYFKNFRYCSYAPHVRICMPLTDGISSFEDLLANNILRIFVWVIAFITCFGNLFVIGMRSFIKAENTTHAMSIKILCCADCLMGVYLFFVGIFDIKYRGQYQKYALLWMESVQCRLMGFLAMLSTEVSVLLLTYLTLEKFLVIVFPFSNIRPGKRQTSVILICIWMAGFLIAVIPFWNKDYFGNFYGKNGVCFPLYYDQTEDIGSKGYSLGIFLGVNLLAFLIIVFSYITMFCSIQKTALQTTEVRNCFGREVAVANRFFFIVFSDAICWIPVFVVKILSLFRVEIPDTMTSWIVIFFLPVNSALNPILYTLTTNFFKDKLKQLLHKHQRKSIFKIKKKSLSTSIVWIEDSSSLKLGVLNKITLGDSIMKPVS
Method: The influence of cAMP signaling by synthetic analogues in HEK-293T cells expressing either human RXFP1 or RXFP2 receptors was assessed using cAMP reporter gene assay as described previously. Briefly, HEK-293T cotransfected with response element pCRE β-galactosidase reporter plasmid were plated out in Corning Cell BIND 96-well plate at 50 000 cells per well per 200 μL. 24 h later, cotransfected cells were treated with increasing concentrations of H2 relaxin analogues in parallel with native H2 relaxin or human INSL3. After 6 h incubation at 37°C, cell media were aspirated and cells were frozen at −80°C overnight. A β-galactosidase colorimetric assay measuring absorbance at 570 nm on Benchmark Plus microplate spectrophotometer (Bio-Rad, Gladesville, Australia) was then used to measure relative cAMP responses. Each concentration point was measured in triplicate and each experiment performed independently at least three times. Ligand-induced stimulation of cAMP was expressed as a percentage of the maximum H2 relaxin response for RXFP1 cells or human INSL3 for RXFP2 cells. GraphPad Prism 5 was used to analyze the cAMP activity assay which was expressed as the mean ± S.E.M. Statistical analysis was conducted using one-way ANOVA with Newman-Keuls post hoc analysis.

In vitro serum stability = format: in vitro ADME; details: 100% human serum; 100% male human serum, not heat inactivated, 37°C; 10.0 μL of 1.0 mg/mL peptide in 590 μL serum; samples 0-6 h, acetonitrile/0.1% TFA quench, RP-HPLC (C4) peak area; triplicate
Method: The stability of the synthetic analogue was measured against native H2 relaxin in human serum. The purchased serum was not heat inactivated in order to retain as much of its proteolytic enzymic activity as possible. The peptides tested were normalized to a final concentration of 1.0 mg/mL with deionized water, and 10.0 μL of peptides was added to 590 μL 100% human serum. After addition of peptide into the serum, 50 μL of samples was removed and quenched with 250 μL of ice-cold acetonitrile/0.1% TFA. The solution was then spun down with a benchtop centrifuge at 13,500 rpm (Eppendorf Centrifuge 5804R, Melbourne, Australia) for 15 mins at 4°C to pellet the larger, precipitated serum proteins. The remaining peptide/serum solution was placed immediately into 37°C incubator. Degradation of peptides was monitored with manual RP-HPLC injections of supernatant using a Phenomenex Aeris Widepore 3.6 μm C4 analytical column (pore size, 100 Å; particle size 4.6 × 250 mm), in a stabilized gradient mode with eluent A: 0.1% aq TFA and eluant B: 0.1% TFA in acetonitrile. Samples were taken at time points 0.5, 1.0, 1.5, 2.0, 2.5, 3, 4, 5, and 6 h. […] Nonspecific peptide degradation was measured by peptide degradation in serum at 0 h. […] GraphPad Prism 5 was used to analyze the peptide degradation in serum which was expressed as the mean ratio ± S.E.M. and Microsoft Excel was used to graph all data. […]

[1] = cited from earlier work
Method: Nearly 9 decades since its discovery, the pleotropic peptide H2 relaxin recently completed a successful Phase III clinical trial for the treatment of acute heart failure. Despite this important success, the short in vivo half-life of the peptide (10 mins) necessitates its continuous intravenous infusion for optimum activity. As the in vivo half-life of a peptide or protein is affected by both its degradation by enzymes and renal clearance, it can be improved by, for example, conjugation with large MW compounds such as PEG or by polymerization/aggregation ...

| Molecule | cAMP activation at RXFP2 compared with H2 relaxin (human RXFP2) | half-life at 16.7 µg/mL (In vitro serum stability) [h] | activity in vivo relative to monomer [1] [fold] | plasma half-life in rabbits [1] |
| --- | --- | --- | --- | --- |
| CC[C@H](C)[C@@H]1NC(=O)[C@H](C)NC(=O)[C@H](CC(C)C)NC(=O)[C@H](CCC(N)=O)NC(=O)[C@H](C)NC(=O)[C@H](CCCNC(=N)N)NC(=O)[C@H](C(C)C)NC(=O)[C@H](CC(C)C)NC(=O)[C@H](CCC(=O)O)NC(=O)[C@H](CCCNC(=N)N)NC(=O)CNC(=O)[C@@H](NC(=O)[C@H](CC(C)C)NC(=O)[C@H](CCCCN)NC(=O)[C@@H](NC(=O)[C@@H](NC(=O)[C@H](CCC(=O)O)NC(=O)[C@H](CCC(=O)O)NC(=O)[C@H](CCSC)NC(=O)[C@H](Cc2c[nH]c3ccccc23)NC(=O)[C@H](CO)NC(=O)[C@H](CC(=O)O)NC(=O)[C@@H](N)Cc2cn(CCOCCOCCOCCOCCOCCOCCOCCn3cc(C[C@H](N)C(=O)N[C@@H](CC(=O)O)C(=O)N[C@@H](CO)C(=O)N[C@@H](Cc4c[nH]c5ccccc45)C(=O)N[C@@H](CCSC)C(=O)N[C@@H](CCC(=O)O)C(=O)N[C@@H](CCC(=O)O)C(=O)N[C@H](C(=O)N[C@H](C(=O)N[C@@H](CCCCN)C(=O)N[C@@H](CC(C)C)C(=O)N[C@H]4CSSC[C@@H]5NC(=O)[C@@H](NC(=O)[C@H](CCCCN)NC(=O)[C@H](CC(N)=O)NC(=O)[C@H](C)NC(=O)[C@H](CC(C)C)NC(=O)[C@H](C)NC(=O)[C@H](CO)NC(=O)[C@H](Cc6ccc(O)cc6)NC(=O)[C@H](CC(C)C)NC(=O)[C@@H]6CCC(=O)N6)CSSC[C@H](NC(=O)CNC(=O)[C@H](C(C)C)NC(=O)[C@H](Cc6c[nH]cn6)NC5=O)C(=O)N[C@@H]([C@@H](C)O)C(=O)N[C@@H](CCCCN)C(=O)N[C@@H](CCCNC(=N)N)C(=O)N[C@@H](CO)C(=O)N[C@@H](CC(C)C)C(=O)N[C@@H](C)C(=O)N[C@@H](CCCNC(=N)N)C(=O)N[C@@H](Cc5ccccc5)C(=O)N[C@H](C(N)=O)CSSC[C@@H](C(=O)NCC(=O)N[C@@H](CCSC)C(=O)N[C@@H](CO)C(=O)N[C@H](C(=O)N[C@@H](Cc5c[nH]c6ccccc56)C(=O)N[C@@H](CO)C(N)=O)[C@@H](C)O)NC(=O)[C@H]([C@@H](C)CC)NC(=O)[C@H](C)NC(=O)[C@H](CC(C)C)NC(=O)[C@H](CCC(N)=O)NC(=O)[C@H](C)NC(=O)[C@H](CCCNC(=N)N)NC(=O)[C@H](C(C)C)NC(=O)[C@H](CC(C)C)NC(=O)[C@H](CCC(=O)O)NC(=O)[C@H](CCCNC(=N)N)NC(=O)CNC4=O)[C@@H](C)CC)C(C)C)nn3)nn2)C(C)C)[C@@H](C)CC)CSSC[C@@H]2NC(=O)[C@@H](NC(=O)[C@H](CCCCN)NC(=O)[C@H](CC(N)=O)NC(=O)[C@H](C)NC(=O)[C@H](CC(C)C)NC(=O)[C@H](C)NC(=O)[C@H](CO)NC(=O)[C@H](Cc3ccc(O)cc3)NC(=O)[C@H](CC(C)C)NC(=O)[C@@H]3CCC(=O)N3)CSSC[C@H](NC(=O)CNC(=O)[C@H](C(C)C)NC(=O)[C@H](Cc3c[nH]cn3)NC2=O)C(=O)N[C@@H]([C@@H](C)O)C(=O)N[C@@H](CCCCN)C(=O)N[C@@H](CCCNC(=N)N)C(=O)N[C@@H](CO)C(=O)N[C@@H](CC(C)C)C(=O)N[C@@H](C)C(=O)N[C@@H](CCCNC(=N)N)C(=O)N[C@@H](Cc2ccccc2)C(=O)N[C@H](C(N)=O)CSSC[C@@H](C(=O)NCC(=O)N[C@@H](CCSC)C(=O)N[C@@H](CO)C(=O)N[C@H](C(=O)N[C@@H](Cc2c[nH]c3ccccc23)C(=O)N[C@@H](CO)C(N)=O)[C@@H](C)O)NC1=O [H2 (PEG)7 H2 dimer] | significantly weaker activation propensity | 2.52 | – | – |
| dimeric erythropoietin: dimeric erythropoietin formed by chemical crosslinking of the monomer | – | – | 26 | more than 24 h |
| erythropoietin monomer: erythropoietin monomer | – | – | – | 4 h |
